In patent publication US9486475B2 (AMGEN RESEARCH (MUNICH) GMBH, priority 2013, dated 2016):

Tests used:
non-Hodgkin's lymphoma = conditions: cited from earlier work
follicular lymphoma = assay: Blinatumomab treatment of patient 109-036 (follicular lymphoma): CT tumor response; type: in vivo, human; conditions: Blinatumomab 5 μg/m^2/24 h for 1 week, then 60 μg/m^2/24 h, with PPS
Description: (§1) Patient was then treated for 7 weeks at 60 μg/m^2/24 h of Blinatumomab.
(§2) 6× CHOP 12/02-04/03 • 2. Induction according to Dexa-BEAM Protocol 05/03 • 3. Autologous SCT 08/03 • Date of last prior treatment: 08/03 • Treatment start: 10.5.2010 • Major Involvement: • 1. Supraclavicular • 2. Mediastinal • 3. Mesenterial (small intestinal involvement?) • 4W CT: PR -63% • 8W CT: CRu:-79% • EOS: 30.7.2010
(FL: follicular lymphoma, SCT: stem cell therapy, PR: partial remission, Cru: complete remission (unconfirmed), EOS: end of study).

B cell malignancies = conditions: human, in vivo; cited from earlier work
[1] = tested on: neurological adverse effects caused by a CD3 binding domain; assay: PPS co-treatment of patient 109-036 during Blinatumomab start and dose escalation: neurological adverse effects; type: in vivo, human
Description: as §1, §2

[2] = continuous administration, non-Hodgkin's lymphoma patients

Substance	Dose level at which partial and complete tumor regressions were first observed (non-Hodgkin's lymphoma; [2]) [milligrams/m^2/d]	Effect on tumor cells in bone marrow and liver (non-Hodgkin's lymphoma; [2])	Patients who experienced a tumor regression (non-Hodgkin's lymphoma; dose level of 0.06 milligrams/m^2/d)	Effect on lymphoma target cells in blood (non-Hodgkin's lymphoma; doses as low as 0.005 milligrams per square meter per day, continuous, four weeks)	Neurological reactions in the clinical trial (non-Hodgkin's lymphoma; human, in vivo)	4W CT: change (follicular lymphoma; 4 weeks) [%]	8W CT: change (follicular lymphoma; 8 weeks) [%]	8W CT: response category (follicular lymphoma; 8 weeks)	Patients with an early neurological reaction (B cell malignancies)	Apraxia and aphasia ([1]; patient 109-036, low B:T cell ratio, PPS 100 mg i.v. bolus 3 h before treatment start and before dose increase (day 8), then 300 mg/24 h for 48 h, Blinatumomab 5 then 60 μg/m^2/24 h)	Tremor (remaining neurological adverse effect) ([1]; patient 109-036, PPS 100 mg i.v. bolus then 300 mg/24 h for 48 h, Blinatumomab escalation to 60 μg/m^2/24 h)
Blinatumomab	0.015	clearance of tumor cells from bone marrow and liver	all seven	elimination of lymphoma target cells in blood	neurological reactions have been found	-63	-79	CRu	7 out of 22		
β-D-Xylan, (1-4), 2,3-bis(hydrogen sulphate) [PPS]										prevented	slight tremor
